The values that follow are results of earlier work, collected in PMC10994248 (The Oncologist, 2024).

This series has as its system FGFR2 fusion or rearranged cholangiocarcinoma. As to conditions: after failure of first-line chemotherapy ref 20-22; cited from earlier work.

With `CCN1CCN(c2ccc(Nc3cc(N(C)C(=O)Nc4c(Cl)c(OC)cc(OC)c4Cl)ncn3)cc2)CC1` [infigratinib], the Objective response rate is reported as 23%.
`CCN1C(=O)N(c2c(F)c(OC)cc(OC)c2F)Cc2cnc3[nH]c(CN4CCOCC4)cc3c21` [pemigatinib]: the Objective response rate was 36%.
